Drawing on patent publication US7790742B2, “Substituted 4-phenyltetrahydroisoquinolines, pharmaceutical compositions thereof, methods for their preparation and therapeutic use” (Sanofi-Aventis Deutschland GmbH, priority 2004, dated 2010), this text covers melting point for 25 compounds.

Consider `CN1Cc2c(Cl)cc(Cl)cc2C(c2ccc(Nc3c(N(C)C4CCCCC4)c(=O)c3=O)cc2)C1` (stereo not shown) [Example 17, 6,8-dichloro-2-methyl-4-[4N-(2-N-cyclohexyl-N-methylamino-3,4-dioxocyclobuten-1-yl)amino]phenyl-1,2,3,4-tetrahydroisoquinoline], for which the melting point (usually the temperature, or range, at which the solid turns liquid) was in the range of 260 to 265 °C. In the case of `CN1Cc2c(Cl)cc(Cl)cc2[C@H](c2ccc(Nc3c(N(C)C)c(=O)c3=O)cc2)C1` [Example 20, 6,8-dichloro-2-methyl-4(S)-[4N-(2-dimethylamino-3,4-dioxocyclobuten-1-yl)amino]phenyl-1,2,3,4-tetrahydroisoquinoline] it was 240 to 247 °C. Then `CN1Cc2c(Cl)cc(Cl)cc2[C@H](c2ccccc2Nc2c(N(C)C)c(=O)c2=O)C1` [Example 21, 6,8-dichloro-2-methyl-4(R)-[2N-(2-dimethylamino-3,4-dioxocyclobuten-1-yl)amino]phenyl-1,2,3,4-tetrahydroisoquinoline], with 236 to 240 °C; and `CN1Cc2c(Cl)cc(Cl)cc2[C@H](c2ccc(Nc3c(NC4CC4)c(=O)c3=O)cc2)C1` [Example 35], with 280 to 285 °C. Then `CN1Cc2c(Cl)cc(Cl)cc2C(c2ccc(Nc3c(Nc4ccccc4)c(=O)c3=O)cc2)C1` (stereo not shown) [Example 43, 6,8-dichloro-2-methyl-4-[4N-(2-N-phenylamino-3,4-dioxocyclobuten-1-yl)amino]phenyl-1,2,3,4-tetrahydroisoquinoline], with 288 to 294 °C.

Compound `CNc1c(Nc2ccccc2C2CN(C)Cc3c(Cl)cc(Cl)cc32)c(=O)c1=O` (stereo not shown) [Example 44, 6,8-dichloro-2-methyl-4-[2N-(2-N-methylamino-3,4-dioxocyclobuten-1-yl)amino]phenyl-1,2,3,4-tetrahydroisoquinoline] registered a melting point of 224 to 230 °C.

Turning to `CCCCCCNc1c(Nc2ccccc2C2CN(C)Cc3c(Cl)cc(Cl)cc32)c(=O)c1=O` (stereo not shown) [Example 45, 6,8-dichloro-2-methyl-4-[2N-(2-N-(1-hexylamino)-3,4-dioxocyclobuten-1-yl)amino]phenyl-1,2,3,4-tetrahydroisoquinoline], the melting point fell in the range of 157 to 160 °C. Then `CC(C)Nc1c(Nc2ccccc2C2CN(C)Cc3c(Cl)cc(Cl)cc32)c(=O)c1=O` (stereo not shown) [Example 46, 6,8-dichloro-2-methyl-4-[2N-(2-N-isopropylamino-3,4-dioxocyclobuten-1-yl)amino]phenyl-1,2,3,4-tetrahydroisoquinoline], with 238 to 241 °C; and `CN1Cc2c(Cl)cc(Cl)cc2C(c2ccccc2Nc2c(NC3CCCC3)c(=O)c2=O)C1` (stereo not shown) [Example 47, 6,8-dichloro-2-methyl-4-[2N-(2-N-cyclopentylamino-3,4-dioxocyclobuten-1-yl)amino]phenyl-1,2,3,4-tetrahydroisoquinoline], with 278 to 281 °C; and `CN1Cc2c(Cl)cc(Cl)cc2C(c2ccccc2Nc2c(NCc3ccco3)c(=O)c2=O)C1` (stereo not shown) [Example 48, 6,8-dichloro-2-methyl-4-[2N-(2N-(2-furylmethyl)amino-3,4-dioxocyclobuten-1-yl)amino]phenyl-1,2,3,4-tetrahydroisoquinoline], with 279 to 283 °C.

`CCNc1c(Nc2ccccc2C2CN(C)Cc3c(Cl)cc(Cl)cc32)c(=O)c1=O` (stereo not shown) [Example 49, 6,8-dichloro-2-methyl-4-[2N-(2-N-ethylamino-3,4-dioxocyclobuten-1-yl)amino]phenyl-1,2,3,4-tetrahydroisoquinoline] yielded a melting point of 205 to 208 °C. Then `CN(C)CCNc1c(Nc2ccccc2C2CN(C)Cc3c(Cl)cc(Cl)cc32)c(=O)c1=O` (stereo not shown) [Example 50, 6,8-dichloro-2-methyl-4-[2N-(2-N-dimethylaminoethylamino-3,4-dioxocyclobuten-1-yl)amino]phenyl-1,2,3,4-tetrahydroisoquinoline], with 208 to 211 °C; and `CCNc1c(Nc2ccc(C3CN(C)Cc4c(Cl)cc(Cl)cc43)cc2)c(=O)c1=O` (stereo not shown) [Example 51, 6,8-dichloro-2-methyl-4-[4N-(2-N-ethylamino-3,4-dioxocyclobuten-1-yl)amino]phenyl-1,2,3,4-tetrahydroisoquinoline], with 292 to 297 °C; and `CN1Cc2c(Cl)cc(Cl)cc2C(c2ccccc2Nc2c(NCc3cccnc3)c(=O)c2=O)C1` (stereo not shown) [Example 52, 6,8-dichloro-2-methyl-4-[2N-(2N-(3-picolylmethyl)amino-3,4-dioxocyclobuten-1-yl)amino]phenyl-1,2,3,4-tetrahydroisoquinoline], with 244 to 246 °C. Then `CNc1c(Nc2ccc(C3CN(C)Cc4c(Cl)cc(Cl)cc43)cc2)c(=O)c1=O` (stereo not shown) [Example 53, 6,8-dichloro-2-methyl-4-[4N-(2N-methylamino-3,4-dioxocyclobuten-1-yl)amino]phenyl-1,2,3,4-tetrahydroisoquinoline], with 328 to 334 °C. In the case of `CN1Cc2c(Cl)cc(Cl)cc2C(c2ccc(Nc3c(NC4CCCC4)c(=O)c3=O)cc2)C1` (stereo not shown) [Example 54] it was 300 to 304 °C. With `CC(C)Nc1c(Nc2ccc(C3CN(C)Cc4c(Cl)cc(Cl)cc43)cc2)c(=O)c1=O` (stereo not shown) [Example 55, 6,8-dichloro-2-methyl-4-[4N-(2N-isopropylamino-3,4-dioxocyclobuten-1-yl)amino]phenyl-1,2,3,4-tetrahydroisoquinoline], the melting point lay in the range of 268 to 272 °C. Then `CN1Cc2c(Cl)cc(Cl)cc2C(c2ccc(Nc3c(NCc4ccco4)c(=O)c3=O)cc2)C1` (stereo not shown) [Example 56, 6,8-dichloro-2-methyl-4-[4N-(2N-(2-furylmethyl)amino-3,4-dioxocyclobuten-1-yl)amino]phenyl-1,2,3,4-tetrahydroisoquinoline], with 264 to 268 °C.

For the compound `CN(C)CCNc1c(Nc2ccc(C3CN(C)Cc4c(Cl)cc(Cl)cc43)cc2)c(=O)c1=O` (stereo not shown) [Example 57], the melting point is 262 to 266 °C. Then `CCCCCCNc1c(Nc2ccc(C3CN(C)Cc4c(Cl)cc(Cl)cc43)cc2)c(=O)c1=O` (stereo not shown) [Example 58], with 234 to 238 °C. Compound `CN1Cc2c(Cl)cc(Cl)cc2C(c2ccc(Nc3c(NCc4cccnc4)c(=O)c3=O)cc2)C1` (stereo not shown) [Example 59] yielded a melting point of 288 to 290 °C.

Compound `CNc1c(Nc2cccc(C3CN(C)Cc4c(Cl)cc(Cl)cc43)c2)c(=O)c1=O` (stereo not shown) [Example 60] returned a melting point of 295 to 298 °C. As for `CN1Cc2c(Cl)cc(Cl)cc2C(c2cccc(Nc3c(NC4CCCC4)c(=O)c3=O)c2)C1` (stereo not shown) [Example 63, 6,8-dichloro-2-methyl-4-[3N-(2-cyclopentylamino-3,4-dioxocyclobuten-1-yl)amino]phenyl-1,2,3,4-tetrahydroisoquinoline], the melting point was 248 to 252 °C. As for `CC(C)Nc1c(Nc2cccc(C3CN(C)Cc4c(Cl)cc(Cl)cc43)c2)c(=O)c1=O` (stereo not shown) [Example 64], the melting point is 240 to 244 °C. In the case of `CN(C)CCNc1c(Nc2cccc(C3CN(C)Cc4c(Cl)cc(Cl)cc43)c2)c(=O)c1=O` (stereo not shown) [Example 65] it was 198 to 200 °C.
